By IC50 is commonly meant the midpoint of a concentration-inhibition curve.

One assay deals with HIV-1 integrase (Human immunodeficiency virus type 1 group M subtype B, UniProt P12497). Put plainly: biochemical. Type of assay: biochemical. The method, boiled down:
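Compounds or DMSO added to 20 nM DNA and 400 nM integrase in 50 mM MOPS pH 7.2, 7.5 mM MgCl2, 14 mM 2-mercaptoethanol; 2 h at 37° C, quenched with formamide/SDS loading buffer. Products resolved on gels, imaged and quantified by densitometry.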

Assay [1] relates to HIV-1 constructs containing wild-type IN. Put plainly: microbe, parasite or virus in culture. Type of assay: cell-based.
Assay [2] has as its system HIV-1 constructs containing mutant IN G140S-Q148H. As to the kind of experiment: microbe, parasite or virus in culture. Type of assay: cell-based. Particulars: Human immunodeficiency virus 1. The method, boiled down: (§1)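 Single-round infectivity assay using luciferase-reporter pNLNgoMIVR−ΔEnv.LUC virus carrying site-directed integrase mutants, produced in 293 cells. Activity normalized to infectivity without compound; EC50 from regression fit.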

The test system of assay [3] is HIV-1 constructs containing mutant IN N155H. Put plainly: microbe, parasite or virus in culture. The class given is cell-based. Particulars: Human immunodeficiency virus 1. In a few lines: as §1
The test system of assay [4] is HIV-1 constructs containing mutant IN Y143R. Put plainly: microbe, parasite or virus in culture. Particulars: Human immunodeficiency virus 1. Type of assay: cell-based. The method, boiled down:
as §1

The subject of assay [5] is HIV-1 constructs containing mutant IN G118R. As to the kind of experiment: microbe, parasite or virus in culture. Particulars: Human immunodeficiency virus 1. Type of assay: cell-based. Here is the method: Single-Round HIV-1 Infectivity Assay.
Human embryonyl kidney cell culture cell line 293 was acquired from the American type Culture Collection (ATCC).
[…]. […] The virus-containing supernatants were then harvested, clarified by low-speed centrifugation, filtrated, and diluted for preparation in infection assays. […] After compound incorporation and activation in the cell, 100 μL of virus-stock diluted to achieve a maximum luciferase signal between 0.2 and 1.5 RLUs was added to each well and further incubated at 37° C. for 48 hrs. […] Activity was normalized to infectivity in the absence of target compounds. KaleidaGraph (Synergy Software, Reading, Pa.) was used to perform regression analysis on the data. EC50 values were determined from the fit model.
pNLNgoMIVR^−ΔEnv.LUC has been described previously (Zhao et al. 2008). The integrase codon reading frame was removed from pNLNgoMIVR^−ΔEnv LUC (between KpnI and SalI sites) and placed between the KpnI and SalI sites of pBluescript II KS+. Using that construct as the wild-type template, we prepared the following HIV-1 Integrase-resistant mutants via the QuikChange II XL (Stratagene, La Jolla, Calif.) site-directed mutagenesis protocol: H51Y, T66I, E92Q, G118R, Y143R, Q148H, Q148K, N155H, R263K, G140S+Q148H, G140A+Q148K, E138K+Q148K, and H51Y+R263K. The following sense with cognate antisense (not shown) oligonucleotides (Integrated DNA Technologies, Coralville, Iowa) were used in the mutagenesis: H51Y, 5′-[…]-3; T66I, 5′-[…]-3′; E92Q, 5′-[…]-3′; G118R, 5′-[…]-3′; E138K, 5′-[…]-3; G140A, 5′-[…]-3; G140S, 5′-[…]-3′; Y143R, 5′-[…]-3′; Q148H, 5′-[…]-3′; Q148K, 5′-[…]-3; N155H, 5′-[…]-3′; R263K 5′-[…]-3′. The double mutation G140S+Q148H was constructed by using the previously generated Q148H mutant and the appropriate oligonucleotide for the 2nd mutation, G140S. The double mutation G140A+Q148K was made by using the Q148K mutant and the appropriate oligonucleotide for the 2nd mutation, G140A. The double mutation E138K+Q148K was made by using the Q148K mutant and the appropriate oligonucleotide for the 2nd mutation, E138K. The double mutation H51Y+R263K was constructed by using the previously generated H51Y mutant and the appropriate oligonucleotides for the 2nd mutation, R263K. The DNA sequence of each construct was verified independently by DNA sequence determination. The mutant integrase coding sequences from pBluescript II KS+ were then subcloned into pNLNgoMIVR^−ΔEnv LUC (between the KpnI and SalI sites) to produce the full-length mutant HIV-1 Integrase constructs. These DNA sequences were additionally checked independently by DNA sequence determination.

Like-named read-outs stand apart in the source and are kept apart here.

As for `CC(=O)OCCNc1c(C(=O)NCc2ccc(F)cc2F)c(=O)n(O)c2ncccc12` [XZ402, 2-((3-((2,4-difluorobenzyl)carbamoyl)-1-hydroxy-2-oxo-1,2-dihydro-1,8-naphthyridin-4-yl)amino)ethyl acetate], the IC50 at HIV-1 integrase (Table 4, 3′-processing, read-out: IC50 (3^+-Processing)) was determined as 5300 ± 500 nM; at HIV-1 integrase (Table 4, strand transfer, read-out: IC50 (Strand Transfer)), 27 ± 6 nM. Further, the EC50 in assay [1] (Human immunodeficiency virus 1, read-out: EC50 (nM), Table 9, WT, normal 5% serum) worked out at 4.5 ± 1.5 nM; in assay [1] (Human immunodeficiency virus 1, Table 3, WT IN, read-out: EC50 (nM, WT)), 4.5 ± 1.5 nM; in assay [2] (Table 3, G140S-Q148H double mutant, read-out: EC50 (nM, IN Mutants) SH), 35.1 ± 13.6 nM; in assay [3] (Table 3, read-out: EC50 (nM, IN Mutants) N155H), 3.1 ± 0.3 nM; in assay [4] (Table 3, read-out: EC50 (nM, IN Mutants) Y143R) it was 4.8 ± 2.9 nM; in assay [5] (Table 6, read-out: EC50 (nM, IN Mutants) G118R), 43.5 ± 11.2 nM. For the same compound, the “Si (selectivity index)” value in assay [1] (Table 3, ratio of CC50 to EC50) is >25,000.

`O=C(NCc1ccc(F)cc1F)c1c(O)c2c(CO)ccnc2n(O)c1=O` [XZ440, N-(2,4-Difluorobenzyl)-1,4-dihydroxy-5-(hydroxymethyl)-2-oxo-1,2-dihydro-1,8-naphthyridine-3-carboxamide]: the half-inhibitory concentration (IC50) on HIV-1 integrase (Table 10, strand transfer, read-out: IC50 (nM, ST)) amounted to 14.5 ± 0.8 nM. Besides, the EC50 in assay [1] (Human immunodeficiency virus 1, Table 8, WT IN, read-out: EC50 (nM, WT)) amounted to 7.3 nM; in assay [2] (Table 8, read-out: EC50 (nM, IN mutants) G140S/Q148H), 14.7 nM; in assay [3] (Table 8, read-out: EC50 (nM, IN mutants) N155H), 14.9 nM; in assay [4] (Table 8, read-out: EC50 (nM, IN mutants) Y143R), 2.6 nM; in assay [5] (Table 8, read-out: EC50 (nM, IN mutants) G118R) it was 23 nM.

(Values after patent US9676771B2, “Compounds for inhibiting drug-resistant strains of HIV-1 integrase” (priority 2013, dated 2017).)
